Holding throughout (type): in vivo
Assay [1] concerns velvetleaf (Abutilon theophrasti, ABUTH). Briefly: Pre-emerge test, greenhouse herbicide activity screening. To be noted: Abutilon theophrasti, pre-emergence, 336 h, pre-emerge, phytotoxicity rating 0-100 at 14 days after application, read-out: Pre-emerge Herbicidal Activity ABUTH; for pest or weed control at 63 g/ha: rate 63 g ai/ha; for pest or weed control at 250 g/ha: rate 250 g ai/ha. The method, boiled down: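 Visual ratings on a 0-100 scale (0 no damage, 100 all plants dead) were taken at 14 days after treatment. Rates of 15-1000 g ai/ha in acetone, 187 l/ha, were sprayed onto soil one day after planting (pre-emerge) or onto 2-3 leaf plants with 0.25% v/v surfactant (post-emerge).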

Assay [2] relates to redroot pigweed (Amaranthus retroflexus, AMARE). The assay is described as above. To be noted: Amaranthus retroflexus, pre-emergence, 336 h, pre-emerge, phytotoxicity rating 0-100 at 14 days after application, read-out: Pre-emerge Herbicidal Activity AMARE; for pest or weed control at 63 g/ha: rate 63 g ai/ha; for pest or weed control at 250 g/ha: rate 250 g ai/ha. The method, boiled down:
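Rating: 0–100 visual injury, 14 DAA. Application: acetone, 187 l/ha, 15–1000 g ai/ha, flat-fan track sprayer with nozzle 40–45 cm above soil or canopy. Post-emerge runs used 0.25% v/v surfactant on 2–3 leaf plants.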

Assay [3] shares this test system. Briefly: Post-emerge test, greenhouse herbicide activity screening. As to conditions: Amaranthus retroflexus, post-emergence, 336 h, post-emerge, phytotoxicity rating 0-100 at 14 days after application, read-out: Post-emerge Herbicidal Activity AMARE; for pest or weed control at 63 g/ha: 63 g ai/ha; for pest or weed control at 250 g/ha: 250 g ai/ha. The method, boiled down:
(§1)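 Compounds in acetone were track-sprayed at 187 l/ha, 15–1000 g ai/ha, onto sandy loam pots. Pre-emerge seeds were sown one day before spraying, with surface watering afterwards. Post-emerge plants were at the 2–3 leaf stage and sprayed with 0.25% v/v non-ionic surfactant. Injury was rated 0–100 at 14 days.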

In assay [4] the test system is lambsquarters (Chenopodium album, CHEAL). Described as above. To be noted: Chenopodium album, post-emergence, 336 h, post-emerge, phytotoxicity rating 0-100 at 14 days after application, read-out: Post-emerge Herbicidal Activity CHEAL; for pest or weed control at 63 g/ha: 63 g ai/ha; for pest or weed control at 250 g/ha: 250 g ai/ha. The method, boiled down: as §1
In assay [5] the test system is large crabgrass (Digitaria sanguinalis, DIGSA). The description is as above. As to conditions: Digitaria sanguinalis, post-emergence, 336 h, post-emerge, phytotoxicity rating 0-100 at 14 days after application, read-out: Post-emerge Herbicidal Activity DIGSA; for pest or weed control at 63 g/ha: 63 g ai/ha; for pest or weed control at 250 g/ha: 250 g ai/ha. The method, boiled down:
as §1

For assay [6], the system named is sicklepod (Cassia obtusifolia, CASOB). The assay is described as above. To be noted: Senna obtusifolia, post-emergence, 336 h, post-emerge, phytotoxicity rating 0-100 at 14 days after application, read-out: Post-emerge Herbicidal Activity CASOB; for pest or weed control at 63 g/ha: 63 g ai/ha; for pest or weed control at 250 g/ha: 250 g ai/ha. The method, boiled down: as §1

The test system of assay [7] is green foxtail (Setaria viridis, SETVI). Described as above. To be noted: Setaria viridis, post-emergence, 336 h, post-emerge, phytotoxicity rating 0-100 at 14 days after application, read-out: Post-emerge Herbicidal Activity SETVI; for pest or weed control at 63 g/ha: 63 g ai/ha; for pest or weed control at 250 g/ha: 250 g ai/ha. The method, boiled down:
as §1

Assay [8] deals with barnyardgrass (Echinochloa crus-galli, ECHCG). Described as above. As to conditions: Echinochloa crus-galli, post-emergence, 336 h, post-emerge, phytotoxicity rating 0-100 at 14 days after application, read-out: Post-emerge Herbicidal Activity ECHCG; for pest or weed control at 63 g/ha: 63 g ai/ha; for pest or weed control at 250 g/ha: 250 g ai/ha. The method, boiled down: as §1

Assay [9] deals with velvetleaf (Abutilon theophrasti, ABUTH). Described as above. As to conditions: Abutilon theophrasti, post-emergence, 336 h, post-emerge, phytotoxicity rating 0-100 at 14 days after application, read-out: Post-emerge Herbicidal Activity ABUTH; for pest or weed control at 63 g/ha: 63 g ai/ha; for pest or weed control at 250 g/ha: 250 g ai/ha. The method, boiled down: as §1
Assay [10] relates to ivyleaf morningglory (Ipomoea hederacea, IPOHE). The assay is described as above. As to conditions: Ipomoea, post-emergence, 336 h, post-emerge, phytotoxicity rating 0-100 at 14 days after application, read-out: Post-emerge Herbicidal Activity IPOHE; for pest or weed control at 63 g/ha: 63 g ai/ha; for pest or weed control at 250 g/ha: 250 g ai/ha. The method, boiled down:
as §1

Each structure is given as a SMILES string.

On to `Cc1nn(-c2c(Cl)cc(Cl)cc2NC(=O)c2ccc3ccccc3c2)c(=O)n1C(F)F` [Compound 6-16], for which the pest or weed control at 63 g/ha is 10% in assay [1]; 30% in [2]; 100% in assay [3]; 100% in assay [4]; 20% in [5]; 80% in [6]. Also, the pest or weed control at 63 g/ha in [7] amounted to 30%; in [8], 20%; in assay [9], 100%; in assay [10] it was 100%. Also, the pest or weed control at 250 g/ha came to 20% in assay [1]; 50% in assay [2]; 90% in assay [3]; 100% in assay [4]; 30% in assay [5]; 60% in [6]. The pest or weed control at 250 g/ha in [7] was determined as 60%; in assay [8], 40%; in [9], 100%; in [10], 75%.

As for `COc1c(Cl)cc(Cl)c(-n2nc(C)n(C(F)F)c2=O)c1NC(=O)c1ccc2ccccc2c1` [Compound 6-17], the pest or weed control at 63 g/ha in assay [1] was 30%; in assay [2] it was 90%; in [3], 60%; in assay [4], 90%; in assay [5], 0%; in assay [6] it was 50%. The pest or weed control at 63 g/ha in assay [7] is 0%; in [8], 0%; in assay [9] it was 90%; in [10], 50%. Besides, the pest or weed control at 250 g/ha in assay [1] was determined as 95%; in assay [2], 100%; in assay [3] it was 70%; in assay [4], 90%; in [5], 20%; in assay [6], 70%. Also, the pest or weed control at 250 g/ha was 30% in assay [7], 30% in assay [8], 100% in [9] and 70% in assay [10].

As for `COc1c(Cl)cc(F)c(-c2nn(C)c(C(F)(F)F)c2Cl)c1NC(=O)c1ccc2ccccc2c1` [Compound 7-14], the pest or weed control at 63 g/ha in assay [1] and in assay [2] was 40% throughout. Besides, the pest or weed control at 250 g/ha worked out at 60% in assay [1]; 80% in assay [2]; 70% in [3]; 90% in assay [4]; 10% in assay [5]; 60% in assay [6]. The pest or weed control at 250 g/ha was determined as 20% in [7], 10% in assay [8], 95% in assay [9] and 100% in assay [10].

Turning to `COc1c(Cl)cc(F)c(-n2nc(C)n(C(F)F)c2=O)c1NC(=O)c1ccc2ccccc2c1` [Compound 6-15], the pest or weed control at 63 g/ha in assay [1] came to 100%; in [2], 100%; in assay [3] it was 100%; in assay [4], 100%; in [5], 30%; in assay [6], 100%. Further, the pest or weed control at 63 g/ha in [7] turned out to be 50%; in assay [8], 40%; in [9], 100%; in assay [10], 100%. The pest or weed control at 250 g/ha was 100% in assay [1]; 100% in [2]; 100% in [3]; 100% in assay [4]; 60% in [5]; 100% in [6]. In addition, the pest or weed control at 250 g/ha in assay [7] is 85%; in assay [8], 70%; in assay [9], 100%; in [10], 100%.

These data come from patent US6355799B1, “Substituted benzene compounds, process for their preparation, and herbicidal and defoliant compositions containing them” (ISK Americas Incorporated, priority 1997, dated 2002).
